Laboratory results from patent publication US20090306373A1, “4,7-DIHYDROTHIENO[2,3-B]PYRIDINE COMPOUNDS AND PHARMACEUTICAL COMPOSITIONS” (priority 2005, published 2009).

Test system: alpha-MyHC
Test: alpha-MyHC cytoblot in neonatal rat ventricular myocytes (NRVM)
Type: cell-based
Conditions: for Max Plateau: fitted maximum, percent fraction of low control (vehicle), in %
Procedure: In vitro activity of each compound is measured using the alpha-MyHC cytoblot process. Briefly, neonatal rat ventricular myocytes (NRVM) at 120,000 cells/ml in HyQ DME/High modified culture media supplemented with 10% charcoal/dextran treated FBS, 0.1% Nutridoma-SP, 1:100 MEM non-essential amino acids, 1:50 MEM amino acids solution w/o L-Gln, 1 mM sodium pyruvate and 1:100 P/S/G, are plated on gelatin coated sterile 384-well plates (Costar 3712) at 6,000 cells per well. Cells are incubated overnight at 37° C. in 5% CO2 100% humidity. Following overnight growth the media is changed to HyQ DME/High modified culture media supplemented with 0.3% Nutridoma-SP, 1:100 MEM non-essential amino acids, 1:50 MEM amino acids solution w/o L-Gln, 1 mM sodium pyruvate and 1:100 P/S/G. Cells are then dosed with serial dilutions of each compound in DMSO. Each concentration in the dose range is dosed in quadruplicate. Dosing is done in such a way so that the final DMSO concentration was 0.44%. Compound dilutions are 3-fold with the final top concentration of 10 uM. […] Following dosing, the cells are incubated for 72 hours at 37° C. in 5% CO2 100% humidity and then processed with the cytoblot method. Briefly, cell media is aspirated and cell monolayers washed with PBS and fixed with 100% methanol for 30 minutes. Fixed cells are then blocked with PBS, 0.05% Tween-20, 1% BSA, for 1 hour. Following blocking, cells are incubated with primary alpha-MyHC-specific antibody (1:30 dilution of BA-G5 hybridoma conditioned media, ATCC HB276) for 1 hour. Following incubation with the primary antibody, cells are washed with PBS, 0.05% Tween-20, 1% BSA and incubated with secondary antibody (1:1000 dilution, goat-anti-mouse HRP, Southern Biotech, 1031-05) for 1 hour. Following incubation with the secondary antibody, wells are washed and incubated in SuperSignal, West Dura HRP-luminescence substrate for 30 seconds under shaking at room temperature. Luminescence is measured using a Packard Fusion plate reader. […] RLU values are converted into percent fraction of low control and dose responses are fitted to a sigmoidal 4-parameter equation (XLFit, IDBS) where the EC50 and Max Plateau values were extracted. […] Max Plateau is the […] maximum value determined by the dose response fit.

Compound	Max Plateau (Table 2, 72 hours)	further results
CCC(=O)C1=C(CC)Nc2sc(C(=O)c3ccccc3Br)c(N)c2C1c1ccccc1 (centres unmarked) [Compound 106]		Max Plateau (Table 1, 72 hours): 244.21 ± 29.53
CCC(=O)C1=C(CC)Nc2sc(C(=O)c3c(Cl)cccc3Cl)c(N)c2C1c1ccccc1F (centres unmarked) [Compound 107]		Max Plateau (Table 1, 72 hours): 273.85 ± 29.06
CCC(=O)C1=C(CC)Nc2sc(C(=O)c3ccc(F)c(F)c3)c(N)c2C1c1ccccc1F (centres unmarked) [Compound 108, 1-[3-amino-2-(3,4 difluoro-benzoyl)-6-ethyl-4-(2 fluoro-phenyl)-4,7 dihydro-thieno[2,3-b]pyridine-5-yl]propan-1-one]		EC50 (Rattus norvegicus, Ventricular myocyte, Table 1, 72 hours, concentration giving 50% of maximum response): 4.02 nM
CCC(=O)C1=C(CC)Nc2sc(C(=O)c3ccc(C#N)cc3)c(N)c2C1c1ccccc1 (centres unmarked) [Compound 112]		Max Plateau (Table 1, 72 hours): 266.67 ± 57.74
CCOC(=O)C1=C(C)Nc2sc(C(=O)c3ccc(Cl)c(Cl)c3)c(N)c2C1c1ccccc1 (centres unmarked) [Compound 113]	256.38	
COC(=O)C1=C(C(C)C)Nc2sc(C(=O)c3ccc(Cl)c(Cl)c3)c(N)c2C1c1ccccc1 (centres unmarked) [Compound 116]	107.57	
COCCOC(=O)C1=C(C)Nc2sc(C(=O)c3ccc(Cl)c(Cl)c3)c(N)c2C1c1ccccc1 (centres unmarked) [Compound 119]	234.93	
COCC1=C(C(=O)OC)C(c2ccccc2)c2c(sc(C(=O)c3ccc(Cl)c(Cl)c3)c2N)N1 (centres unmarked) [Compound 120]	140.79	
COC(=O)C1=C(C(C)(C)C)Nc2sc(C(=O)c3ccc(Cl)c(Cl)c3)c(N)c2C1c1ccccc1 (centres unmarked) [Compound 131]	158.97	
COC(=O)C1=C(C2CC2)Nc2sc(C(=O)c3ccc(Cl)c(Cl)c3)c(N)c2C1c1ccccc1 (centres unmarked) [Compound 133]	180.24	
COC(=O)C1=C(C(C)C)Nc2sc(C(=O)c3ccc(Cl)c(Cl)c3)c(N)c2C1c1cccc([N+](=O)[O-])c1 (centres unmarked) [Compound 134]	98.33	
CC1=C(C(=O)OC(C)C)C(c2ccccc2)c2c(sc(C(=O)c3ccc(Cl)c(Cl)c3)c2N)N1 (centres unmarked) [Compound 135]	186.32	
CCC1=C(C(=O)OC)C(c2c(F)cccc2F)c2c(sc(C(=O)c3ccc(Cl)c(Cl)c3)c2N)N1 (centres unmarked) [Compound 137]	213.90	
CCC1=C(C(=O)OC)C(c2ccccc2)c2c(sc(C(=O)c3cccc([N+](=O)[O-])c3)c2N)N1 (centres unmarked) [Compound 139]	281.08	
CCC1=C(C(=O)OC)C(c2ccccc2F)c2c(sc(C(=O)c3cccc([N+](=O)[O-])c3)c2N)N1 (centres unmarked) [Compound 140]	266.63	
CCC1=C(C(=O)OC)C(c2c(F)cccc2F)c2c(sc(C(=O)c3cccc([N+](=O)[O-])c3)c2N)N1 (centres unmarked) [Compound 141]	261.69	
CCOC(=O)C1=C(CC)Nc2sc(C(=O)c3ccc(Cl)c(Cl)c3)c(N)c2C1c1ccccc1F (centres unmarked) [Compound 142]	194.32	
CCC1=C(C(=O)OC)C(c2ccccc2)c2c(sc(C(=O)c3cccc(C#N)c3)c2N)N1 (centres unmarked) [Compound 143]	290.53	
COC(=O)C1=C(C2CC2)Nc2sc(C(=O)c3ccc(Cl)c(Cl)c3)c(N)c2C1c1ccccc1F (centres unmarked) [Compound 144]	187.17	
CCOC(=O)C1=C(CC)Nc2sc(C(=O)c3ccc(Cl)cc3Cl)c(N)c2C1c1ccccc1 (centres unmarked) [Compound 145]	224.48	
CCOC(=O)C1=C(CC)Nc2sc(C(=O)c3cc(Cl)ccc3Cl)c(N)c2C1c1ccccc1 (centres unmarked) [Compound 146]	213.49	
CCOC(=O)C1=C(CC)Nc2sc(C(=O)c3cc(C(F)(F)F)cc(C(F)(F)F)c3)c(N)c2C1c1ccccc1 (centres unmarked) [Compound 149]	207.18	
CCC1=C(C(=O)OC)C(c2ccccc2F)c2c(sc(C(=O)c3ccc(Cl)c(C)c3)c2N)N1 (centres unmarked) [Compound 150]	228.28	
CCOC(=O)C1=C(CC)Nc2sc(C(=O)c3cc(F)cc(F)c3)c(N)c2C1c1ccccc1 (centres unmarked) [Compound 151]	273.61	
CCOC(=O)C1=C(CC)Nc2sc(C(=O)c3cccc(C(=O)O)c3)c(N)c2C1c1ccccc1 (centres unmarked) [Compound 152]	238.69	
CCC1=C(C(=O)OC)C(c2ccc(F)cc2F)c2c(sc(C(=O)c3ccc(Cl)c(Cl)c3)c2N)N1 (centres unmarked) [Compound 153]	234.66	
